Data: US6331565A, “Dicaffeoylquinic acid for treating hepatitis B and the diseases associated with retrovirus, and the new caffeoylquinic acid derivatives” (Institute of Radiation Medicine Academy of Military Medical …, priority 1996, dated 2001)
Values after ≈ are worked out from the molar mass of the structure shown. Where two headings read alike, the source gives them in different places.

Columns and labels:
HBeAg = experiment: microbe, parasite or virus in culture; assay type: cell-based, HBV; conditions: Hepatitis B virus; for inhibition at 7.81 µg/mL / inhibition at 15.63 µg/mL / inhibition at 31.25 µg/mL / inhibition at 62.5 µg/mL / inhibition at 125 µg/mL / inhibition at 250 µg/mL: read-out: HBeAg Inhibit rate (%)
Procedure: (§1) The cultures were passenged by trypsinization every 4 days.
HBsAg and HBeAg in the culture medium were determined according to the protocol respectively. The culture medium (200 μl) was absorbed on beads containing antibody to HBsAg/HBeAg in the presence of the conjugate. After overnight incubation, the beads were washed 6 times with […] PBS containing 0.05% Tween-80 and incubated with 200 μl of [^125 I] anti-HBs(Hbe) overnight. The beads were washed 6 times as above. The amounts HBsAg/HBeAg as measure of cpm of [^125 I] labeled immunocomplex was counted on γ-counter.

HIV-1 RT = test system: HIV-1 RT
Procedure: MT4 cells in culture were counted by trypan blue exclusion method. The MT4 cells suspended in a small volume of RPMI-1640 medium without FCS and infected with HIV-1 at 200 TCID50 viruses per 10^6 cells. The mixture of MT4 cells and virus was subsequently incubated at 37° C. in a humidified atmosphere of 5% CO2 for 1 hr to allow virus to adsorbed to cells. Unabsorbed viruses were then removed by washing one with […] of the fresh medium and centrifuged at 1000 rpm for ten minutes. The cells were suspended in the medium and distributed into 12-well microculture plates (10^6 cells/3 ml/well). […] After 4-day incubation at 37° C. in a humidified atmosphere containing 5% CO2 the medium was aspirated and the fresh medium containing the same concentration of drug was added.
The presence of HIV-1 RT in the supernatants of infected, drug-treated and infected, no drug treated MT4 cell culture was assayed. Cell culture fluids was clarified at 1000 rpm for 10 minutes to remove cellular debris. The supernatant samples (20 μl) in duplicate transferred to 5 ml plastic Falcon tubes, 10 μl of virus solubilization buffer [0.5% Triton X-100 in 0.8 M NaCl, 0.5 mM phenylmethysulfonyfluoride, 20% (v/v) glycerol and 50 mM Tris-HCl, pH 7.8] were then added to solubilize the viral particles in the supernatant samples and to release RT located in the viral core. 170 μl of reaction mixture (cocktail I) [52 mM Tris-HCl (pH 7.8), 10 mM MgCl2, 2 mM dithiothreitol, 5 μg of poly(rA)-oligo(dT)per ml. 83 μg of dATP per ml, and 3 μCi of [^3 H]TTP per ml] was then added and incubated at 37° C. for 2 hr. The incorporation of [^3 H]TTP into DNA with poly(rA)-olgio(dT) template primer by viral RT was assessed by trichloroacetic (TCA) precipitation and filtered over a […] diameter glass fiber filter. […] of cold 10% TCA was added to precipitate DNA. The precipitate DNA was then collected on the filters in a Millipore sampling manifold, and was washed with additional 5 volumes of 5% TCA and 2 volumes of 70% ethanol. Radioactivity of the DNA on the filters was determined by a scintillation counter.

DHBV = experiment: anti-DHBV test in ducks (serum DHBV DNA dot blot); assay type: in vivo, DHBV in Peking (Beijing) ducks
Procedure: One-day-old ducklings were infected with a 200 μl intravenous injection of DHBV-positive serum containing 10^11 viral genome equivalents per milliliter. Treatment began when ducklings were 7 days old. A total 89 seven-day-old viraemic ducks were distributed at random into five groups. […] Post-treatment follow-up was carried over a period of 5 days. Blood samples were obtained repectively from the leg vein of all ducks and stored at -70° C. after serum separation, prior to treatment, weekly during the treatment, and for 5 days after cessation of treatment. They were screened for presence of DHBV DNA by dot blot hybridization.
DHBV DNA in serum was analyzed by molecular hybridization using full length DHBV DNA clones in PB325. The DHBV DNA insert was purified by agarose gel electrophoresis after digestion with EcoRI. The DHBV DNA was radiolabeled with α^32 P-dCTP random oligopriming with Klenow fragment. Dot blot hybridization was carried out by the method of Scotto et al. Briefly, an aliquot (200 μl) serum was spotted onto a nylon membrane (Hybond-N, Amersham International, England) in dot blot manifold and denatured with 0.5 M NaOH--NaCl at room temperature for 30 min. Each spotted sample was neutralized in 1M Tris.HCl-1.5M NaCl (pH8.0). The DNA on the membrane was fixed by heating at 80° C. for 2 h, and prehybridization at 37° C. overnight in 50% formamide, 5×Denhardt's, 6×SSC,[…], 0.5% SDS and 10 mg/ml of calf thymus DNA. Hybridization was initiated by adding DHBV [^32 P] DNA probes at 10^6 cpm/ml at the same prehybridization conditions overnight. The membrane was washed in 3×SSC-0.1% SDS at room temperature, 42° C. and 65° C. for 10 min respectively. After hybridization the membranes were air-dried and exposed for periods of up to 14 days at -70° C. with Kodak film with an enhancer screen. The amount of viral DNA were assayed by both densitometry and image analysis of autoradiographic membranes.

2.2.15 cells = experiment: Cytotoxicity in 2.2.15 cells (MTT); assay type: cell-based
Procedure: as §1
The viability of cells was determined by MTT.

Work on O=C(/C=C/c1ccc(O)c(O)c1)OC1CC(OC(=O)/C=C/c2ccc(O)c(O)c2)(C(=O)O)CC(O)C1O (centres unmarked) [Compound A, 1,5-di-O-caffeoylquinic acid] yielded an inhibition at 7.81 µg/mL (HBeAg; 96 h) of 8.94 ± 4.29%, an inhibition at 15.63 µg/mL (HBeAg; 96 h) of 19.1 ± 3.89% and an inhibition at 31.25 µg/mL (HBeAg; 96 h) of 34.5 ± 6.66%. For the same molecule, the inhibition at 62.5 µg/mL (HBeAg; 96 h) was 41 ± 3.68%, the inhibition at 125 µg/mL (HBeAg; 96 h) was 47.4 ± 1.09% and the inhibition at 250 µg/mL (HBeAg; 96 h) was 64.2 ± 2.03%. The inhibition at 7.81 µg/mL (HBeAg; 288 h) was 15.9 ± 2.4%, the inhibition at 15.63 µg/mL (HBeAg; 288 h) was 27.8 ± 2.23% and the inhibition at 31.25 µg/mL (HBeAg; 288 h) was 30.5 ± 3.55%. For the same molecule, the inhibition at 62.5 µg/mL (HBeAg; 288 h) was 47.3 ± 0.81%, the inhibition at 125 µg/mL (HBeAg; 288 h) was 54.5 ± 1.01% and the inhibition at 250 µg/mL (HBeAg; 288 h) was 66.5 ± 0.9%. The inhibition at 7.81 µg/mL (HBeAg; […]) was 10.4 ± 2.05%, the inhibition at 15.63 µg/mL (HBeAg; […]) was 31.7 ± 7.1% and the inhibition at 31.25 µg/mL (HBeAg; […]) was 41.8 ± 2.47%. For the same molecule, the inhibition at 62.5 µg/mL (HBeAg; […]) was 45.2 ± 2.47%, the inhibition at 125 µg/mL (HBeAg; […]) was 52.5 ± 1.89% and the inhibition at 250 µg/mL (HBeAg; […]) was 64.7 ± 2.28%. For the same molecule, the IC50 (HBeAg; read-out: IC50, production of HBeAg) was 21 to 78 µg/mL (≈ 40.7 to 151 µM), the “IC50, RT in MT4 cells infected with HIV” value (HIV-1 RT) was 17.1 µg/mL and the “Inhibitory rate(%)” value (HIV-1 RT; 1 μg/ml) was 22.8 ± 1.9%. The cpm (HIV-1 RT; 1 μg/ml) was 6051 ± 91 cpm, the “Inhibitory rate(%)” value (HIV-1 RT; 10 μg/ml) was 45.4 ± 0.8% and the cpm (HIV-1 RT; 10 μg/ml) was 4283 ± 89 cpm. The “Inhibitory rate(%)” value (HIV-1 RT; 100 μg/ml) was 68.7 ± 0.5%, the cpm (HIV-1 RT; 100 μg/ml) was 2456 ± 54 cpm and the “Inhibitory rate(%)” value (HIV-1 RT; 1000 μg/ml) was 80.5 ± 1.5%. For the same molecule, the cpm (HIV-1 RT; 1000 μg/ml) was 1528 ± 89 cpm, the “inhibition of DHBV DNA” value (DHBV; 50 mg.kg of body weight^-1.day^-1) was “strange inhibition of DHBV DNA” and the inhibition of viraemia (DHBV; 50 mg.kg of body weight^-1.day^-1, day 14) was 87%. The “toxicity to 2.2.15 cells” value (2.2.15 cells; 1.0 μg.ml^-1) was “did not show toxicity” and the “harmful effects on 2.2.15 cells” value (2.2.15 cells; 500 μg/ml) was “no obvious harmful effects”.
